From ChEMBL document CHEMBL3797052 (Eur J Med Chem, 2016)

Test system: SK-MEL-2
Test: Antiproliferative activity against human SK-MEL-2 cells assessed as cell growth at 10^-5 M after 48 hrs by sulforhodamine B assay
Type: functional
Conditions: SK-MEL-2, 48 h, read-out: Activity

Compound | growth at 10 µM [%]
CNC(=O)c1cc(Oc2ccc3nc(NC(=O)c4ccc5ncccc5c4)sc3c2)ccn1 | 86.2

Test system: SK-MEL-28
Test: Antiproliferative activity against human SK-MEL-28 cells assessed as cell growth at 10^-5 M after 48 hrs by sulforhodamine B assay
Type: functional
Conditions: SK-MEL-28, 48 h, read-out: Activity

Compound | growth at 10 µM [%]
CNC(=O)c1cc(Oc2ccc3nc(NC(=O)c4ccc5ncccc5c4)sc3c2)ccn1 | 101

Test system: not listed separately
Test: Antiproliferative activity against human UACC257 cells assessed as cell growth at 10^-5 M after 48 hrs by sulforhodamine B assay
Type: functional
Conditions: UACC-257, 48 h, read-out: Activity

Compound | growth at 10 µM [%]
CNC(=O)c1cc(Oc2ccc3nc(NC(=O)c4ccc5ncccc5c4)sc3c2)ccn1 | 93.1

Test system: not listed separately
Test: Antiproliferative activity against human IGROV1 cells assessed as cell growth at 10^-5 M after 48 hrs by sulforhodamine B assay
Type: functional
Conditions: IGROV-1, 48 h, read-out: Activity

Compound | growth at 10 µM [%]
CNC(=O)c1cc(Oc2ccc3nc(NC(=O)c4ccc5ncccc5c4)sc3c2)ccn1 | 93.3

Test system: not listed separately
Test: Antiproliferative activity against human OVCAR3 cells assessed as cell growth at 10^-5 M after 48 hrs by sulforhodamine B assay
Type: functional
Conditions: OVCAR-3, 48 h, read-out: Activity

Compound | growth at 10 µM [%]
CNC(=O)c1cc(Oc2ccc3nc(NC(=O)c4ccc5ncccc5c4)sc3c2)ccn1 | 98.9

Test system: not listed separately
Test: Antiproliferative activity against human OVCAR4 cells assessed as cell growth at 10^-5 M after 48 hrs by sulforhodamine B assay
Type: functional
Conditions: OVCAR-4, 48 h, read-out: Activity

Compound | growth at 10 µM [%]
CNC(=O)c1cc(Oc2ccc3nc(NC(=O)c4ccc5ncccc5c4)sc3c2)ccn1 | 87.4

Test system: not listed separately
Test: Antiproliferative activity against human OVCAR8 cells assessed as cell growth at 10^-5 M after 48 hrs by sulforhodamine B assay
Type: functional
Conditions: OVCAR-8, 48 h, read-out: Activity

Compound | growth at 10 µM [%]
CNC(=O)c1cc(Oc2ccc3nc(NC(=O)c4ccc5ncccc5c4)sc3c2)ccn1 | 100

Test system: 786-0
Test: Antiproliferative activity against human 786-0 cells assessed as cell growth at 10^-5 M after 48 hrs by sulforhodamine B assay
Type: functional
Conditions: 786-0, 48 h, read-out: Activity

Compound | growth at 10 µM [%]
CNC(=O)c1cc(Oc2ccc3nc(NC(=O)c4ccc5ncccc5c4)sc3c2)ccn1 | 98.4

Test system: A498
Test: Antiproliferative activity against human A498 cells assessed as cell growth at 10^-5 M after 48 hrs by sulforhodamine B assay
Type: functional
Conditions: A498, 48 h, read-out: Activity

Compound | growth at 10 µM [%]
CNC(=O)c1cc(Oc2ccc3nc(NC(=O)c4ccc5ncccc5c4)sc3c2)ccn1 | 88.3

Test system: not listed separately
Test: Antiproliferative activity against human Caki1 cells assessed as cell growth at 10^-5 M after 48 hrs by sulforhodamine B assay
Type: functional
Conditions: CAKI-1, 48 h, read-out: Activity

Compound | growth at 10 µM [%]
CNC(=O)c1cc(Oc2ccc3nc(NC(=O)c4ccc5ncccc5c4)sc3c2)ccn1 | 89.9

Test system: SN12C
Test: Antiproliferative activity against human SN12C cells assessed as cell growth at 10^-5 M after 48 hrs by sulforhodamine B assay
Type: functional
Conditions: read-out: Activity

Compound | growth at 10 µM [%]
CNC(=O)c1cc(Oc2ccc3nc(NC(=O)c4ccc5ncccc5c4)sc3c2)ccn1 | 92.6

Test system: not listed separately
Test: Antiproliferative activity against human TK10 cells assessed as cell growth at 10^-5 M after 48 hrs by sulforhodamine B assay
Type: functional
Conditions: TK-10, 48 h, read-out: Activity

Compound | growth at 10 µM [%]
CNC(=O)c1cc(Oc2ccc3nc(NC(=O)c4ccc5ncccc5c4)sc3c2)ccn1 | 90.5

Test system: not listed separately
Test: Antiproliferative activity against human UO31 cells assessed as cell growth at 10^-5 M after 48 hrs by sulforhodamine B assay
Type: functional
Conditions: UO-31, 48 h, read-out: Activity

Compound | growth at 10 µM [%]
CNC(=O)c1cc(Oc2ccc3nc(NC(=O)c4ccc5ncccc5c4)sc3c2)ccn1 | 77

Test system: MCF7
Test: Antiproliferative activity against human MCF7 cells assessed as cell growth at 10^-5 M after 48 hrs by sulforhodamine B assay
Type: functional
Conditions: MCF7, 48 h, read-out: Activity

Compound | growth at 10 µM [%]
CNC(=O)c1cc(Oc2ccc3nc(NC(=O)c4ccc5ncccc5c4)sc3c2)ccn1 | 88

Test system: MDA-MB-231
Test: Antiproliferative activity against human MDA-MB-231 cells assessed as cell growth at 10^-5 M after 48 hrs by sulforhodamine B assay
Type: functional
Conditions: MDA-MB-231, 48 h, read-out: Activity

Compound | growth at 10 µM [%]
CNC(=O)c1cc(Oc2ccc3nc(NC(=O)c4ccc5ncccc5c4)sc3c2)ccn1 | 98.6

Test system: not listed separately
Test: Antiproliferative activity against human Hs 578T cells assessed as cell growth at 10^-5 M after 48 hrs by sulforhodamine B assay
Type: functional
Conditions: read-out: Activity

Compound | growth at 10 µM [%]
CNC(=O)c1cc(Oc2ccc3nc(NC(=O)c4ccc5ncccc5c4)sc3c2)ccn1 | 108

Test system: not listed separately
Test: Antiproliferative activity against human BT549 cells assessed as cell growth at 10^-5 M after 48 hrs by sulforhodamine B assay
Type: functional
Conditions: BT-549, 48 h, read-out: Activity

Compound | growth at 10 µM [%]
CNC(=O)c1cc(Oc2ccc3nc(NC(=O)c4ccc5ncccc5c4)sc3c2)ccn1 | 82.3

Test system: T47D
Test: Antiproliferative activity against human T47D cells assessed as cell growth at 10^-5 M after 48 hrs by sulforhodamine B assay
Type: functional
Conditions: read-out: Activity

Compound | growth at 10 µM [%]
CNC(=O)c1cc(Oc2ccc3nc(NC(=O)c4ccc5ncccc5c4)sc3c2)ccn1 | 51.3
